Measured values published in the kinase profiling compilation of Christmann-Franck et al. (2016).

Columns and labels:
Test in all cases: KINOMEscan competition binding
Conditions in all cases: compound 10.0 µM
AAK1 (human) = AAK1 (human) (UniProt Q2M2I8)
ACVRL1 (human) = ACVRL1 (human) (UniProt P37023)
AURKC (human) = AURKC (human) (UniProt Q9UQB9)
CAMK2A (human) = CAMK2A (human) (UniProt Q9UQM7)
CAMK2D (human) = CAMK2D (human) (UniProt Q13557)
CDC42BPA (human) = CDC42BPA (human) (UniProt Q5VT25)
CDK18 (human) = CDK18 (human) (UniProt Q07002)
CDK8 (human) = CDK8 (human) (UniProt P49336)
DDR2 (human) = DDR2 (human) (UniProt Q16832)
DYRK1B (human) = DYRK1B (human) (UniProt Q9Y463)
EPHB1 (human) = EPHB1 (human) (UniProt P54762)
[1] = system: FLT3 (human), P36888 [ITD]
FRK (human) = FRK (human) (UniProt P42685)
FYN (human) = FYN (human) (UniProt P06241)
GSK3B (human) = GSK3B (human) (UniProt P49841)
IKBKB (human) = IKBKB (human) (UniProt O14920)
MAP2K4 (human) = MAP2K4 (human) (UniProt P45985)
MAP4K1 (human) = MAP4K1 (human) (UniProt Q92918)
MAP4K3 (human) = MAP4K3 (human) (UniProt Q8IVH8)
MAPK13 (human) = MAPK13 (human) (UniProt O15264)
MAPK14 (human) = MAPK14 (human) (UniProt Q16539)
MAPK3 (human) = MAPK3 (human) (UniProt P27361)
MARK1 (human) = MARK1 (human) (UniProt Q9P0L2)
MARK4 (human) = MARK4 (human) (UniProt Q96L34)
MKNK1 (human) = MKNK1 (human) (UniProt Q9BUB5)
NEK2 (human) = NEK2 (human) (UniProt P51955)
NTRK2 (human) = NTRK2 (human) (UniProt Q16620)
PAK4 (human) = PAK4 (human) (UniProt O96013)
PIM2 (human) = PIM2 (human) (UniProt Q9P1W9)
RAF1 (human) = RAF1 (human) (UniProt P04049)
RPS6KA4 KD2 (human) = RPS6KA4 KD2 (human) (UniProt O75676)
RPS6KA5 KD1 (human) = RPS6KA5 KD1 (human) (UniProt O75582)
SIK1 (human) = SIK1 (human) (UniProt P57059)
STK11 (human) = STK11 (human) (UniProt Q15831)
STK32C (human) = STK32C (human) (UniProt Q86UX6)
STK36 (human) = STK36 (human) (UniProt Q9NRP7)
SYK (human) = SYK (human) (UniProt P43405)
TLK1 (human) = TLK1 (human) (UniProt Q9UKI8)
TTK (human) = TTK (human) (UniProt P33981)
WEE1 (human) = WEE1 (human) (UniProt P30291)

Chain of CAMK2D (human) (Q13557 whole entry, looked up): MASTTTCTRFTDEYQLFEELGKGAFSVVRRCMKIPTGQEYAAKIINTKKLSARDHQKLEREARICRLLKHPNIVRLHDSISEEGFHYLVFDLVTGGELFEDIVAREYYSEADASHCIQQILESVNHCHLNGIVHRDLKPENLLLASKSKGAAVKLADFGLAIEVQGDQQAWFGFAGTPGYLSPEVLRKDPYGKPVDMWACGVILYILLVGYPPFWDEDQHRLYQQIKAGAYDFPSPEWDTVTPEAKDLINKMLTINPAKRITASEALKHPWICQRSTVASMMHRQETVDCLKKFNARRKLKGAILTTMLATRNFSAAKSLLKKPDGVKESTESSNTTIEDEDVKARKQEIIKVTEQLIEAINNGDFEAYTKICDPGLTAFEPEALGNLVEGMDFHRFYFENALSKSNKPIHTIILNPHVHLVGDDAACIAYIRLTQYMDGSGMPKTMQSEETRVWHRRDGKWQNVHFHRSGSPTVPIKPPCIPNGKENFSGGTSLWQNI
Chain of FLT3 (human), P36888 [ITD] (P36888 whole entry, looked up, change not shown): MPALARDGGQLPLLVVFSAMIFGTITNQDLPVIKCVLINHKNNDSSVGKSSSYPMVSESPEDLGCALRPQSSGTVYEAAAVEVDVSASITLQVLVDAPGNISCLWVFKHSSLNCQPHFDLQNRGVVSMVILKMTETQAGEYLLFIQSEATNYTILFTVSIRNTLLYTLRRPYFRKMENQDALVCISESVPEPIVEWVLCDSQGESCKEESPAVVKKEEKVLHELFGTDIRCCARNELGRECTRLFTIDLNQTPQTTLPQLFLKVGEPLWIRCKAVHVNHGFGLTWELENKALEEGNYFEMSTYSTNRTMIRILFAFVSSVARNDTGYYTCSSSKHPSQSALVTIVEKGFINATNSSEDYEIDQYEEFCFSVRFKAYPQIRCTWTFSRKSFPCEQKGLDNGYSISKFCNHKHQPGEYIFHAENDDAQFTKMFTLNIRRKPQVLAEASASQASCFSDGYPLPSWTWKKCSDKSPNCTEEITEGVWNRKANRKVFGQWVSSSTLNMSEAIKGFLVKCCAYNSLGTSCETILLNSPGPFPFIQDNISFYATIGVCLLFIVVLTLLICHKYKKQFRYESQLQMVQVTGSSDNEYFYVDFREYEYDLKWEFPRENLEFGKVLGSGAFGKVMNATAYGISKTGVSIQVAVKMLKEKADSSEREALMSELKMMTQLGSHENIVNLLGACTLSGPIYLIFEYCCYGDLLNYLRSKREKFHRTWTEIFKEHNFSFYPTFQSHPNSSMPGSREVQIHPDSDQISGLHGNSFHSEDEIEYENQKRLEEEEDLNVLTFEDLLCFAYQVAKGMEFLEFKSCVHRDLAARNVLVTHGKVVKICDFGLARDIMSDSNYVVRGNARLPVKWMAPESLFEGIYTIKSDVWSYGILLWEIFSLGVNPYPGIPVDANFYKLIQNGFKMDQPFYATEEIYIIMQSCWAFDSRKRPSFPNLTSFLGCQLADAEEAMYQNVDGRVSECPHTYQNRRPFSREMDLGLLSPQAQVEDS
Chain of MAPK13 (human) (O15264 whole entry, looked up): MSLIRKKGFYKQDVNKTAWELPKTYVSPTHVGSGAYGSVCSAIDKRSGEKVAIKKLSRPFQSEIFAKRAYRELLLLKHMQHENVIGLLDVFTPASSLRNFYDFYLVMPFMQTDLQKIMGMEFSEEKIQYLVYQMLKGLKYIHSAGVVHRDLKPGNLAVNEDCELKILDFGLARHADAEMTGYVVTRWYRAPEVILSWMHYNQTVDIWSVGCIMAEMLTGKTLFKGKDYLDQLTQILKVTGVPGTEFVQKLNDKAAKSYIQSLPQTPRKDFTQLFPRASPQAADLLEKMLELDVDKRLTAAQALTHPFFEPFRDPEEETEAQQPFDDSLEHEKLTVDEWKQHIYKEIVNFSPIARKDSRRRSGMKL
Chain of AURKC (human) (Q9UQB9 whole entry, looked up): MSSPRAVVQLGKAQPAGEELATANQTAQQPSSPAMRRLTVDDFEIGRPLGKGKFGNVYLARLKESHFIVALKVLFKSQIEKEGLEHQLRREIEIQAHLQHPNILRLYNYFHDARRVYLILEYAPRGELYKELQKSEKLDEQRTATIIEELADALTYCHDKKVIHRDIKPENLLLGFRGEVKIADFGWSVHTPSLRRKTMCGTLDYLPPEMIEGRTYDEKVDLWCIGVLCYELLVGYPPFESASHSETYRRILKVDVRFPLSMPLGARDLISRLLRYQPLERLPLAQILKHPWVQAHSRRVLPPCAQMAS
Chain of CDK18 (human) (Q07002 whole entry, looked up): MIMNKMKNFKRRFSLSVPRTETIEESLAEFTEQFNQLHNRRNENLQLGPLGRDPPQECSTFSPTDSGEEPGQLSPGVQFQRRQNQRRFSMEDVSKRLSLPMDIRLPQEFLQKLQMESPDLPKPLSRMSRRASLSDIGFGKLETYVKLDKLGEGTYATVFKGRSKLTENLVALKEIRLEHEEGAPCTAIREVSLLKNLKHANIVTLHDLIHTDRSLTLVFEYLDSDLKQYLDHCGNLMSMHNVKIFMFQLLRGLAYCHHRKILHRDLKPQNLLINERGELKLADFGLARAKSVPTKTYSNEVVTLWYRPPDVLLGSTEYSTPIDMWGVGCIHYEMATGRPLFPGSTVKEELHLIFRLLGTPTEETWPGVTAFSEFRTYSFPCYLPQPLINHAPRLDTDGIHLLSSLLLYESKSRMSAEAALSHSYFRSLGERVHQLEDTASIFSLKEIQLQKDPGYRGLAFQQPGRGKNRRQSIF
Chain of TLK1 (human) (Q9UKI8 whole entry, looked up): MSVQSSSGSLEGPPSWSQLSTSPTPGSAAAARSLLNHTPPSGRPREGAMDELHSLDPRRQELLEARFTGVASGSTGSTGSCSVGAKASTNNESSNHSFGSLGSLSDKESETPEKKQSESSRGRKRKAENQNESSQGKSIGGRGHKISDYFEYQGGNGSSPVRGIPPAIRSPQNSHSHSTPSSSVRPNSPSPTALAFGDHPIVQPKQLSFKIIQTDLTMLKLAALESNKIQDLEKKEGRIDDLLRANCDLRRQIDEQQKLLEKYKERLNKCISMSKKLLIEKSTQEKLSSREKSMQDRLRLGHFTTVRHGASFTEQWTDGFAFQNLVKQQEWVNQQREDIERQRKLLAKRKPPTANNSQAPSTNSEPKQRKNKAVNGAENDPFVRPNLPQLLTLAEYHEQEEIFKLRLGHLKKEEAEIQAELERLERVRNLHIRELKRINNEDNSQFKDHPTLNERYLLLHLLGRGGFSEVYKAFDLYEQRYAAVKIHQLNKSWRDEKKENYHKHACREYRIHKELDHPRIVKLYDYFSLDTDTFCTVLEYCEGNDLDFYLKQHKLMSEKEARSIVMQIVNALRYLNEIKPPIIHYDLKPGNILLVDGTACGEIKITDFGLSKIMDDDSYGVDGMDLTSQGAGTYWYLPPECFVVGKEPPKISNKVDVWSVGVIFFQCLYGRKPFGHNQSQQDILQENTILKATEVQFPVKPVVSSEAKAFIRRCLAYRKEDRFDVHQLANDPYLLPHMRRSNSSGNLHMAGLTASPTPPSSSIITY
Chain of NTRK2 (human) (Q16620 whole entry, looked up): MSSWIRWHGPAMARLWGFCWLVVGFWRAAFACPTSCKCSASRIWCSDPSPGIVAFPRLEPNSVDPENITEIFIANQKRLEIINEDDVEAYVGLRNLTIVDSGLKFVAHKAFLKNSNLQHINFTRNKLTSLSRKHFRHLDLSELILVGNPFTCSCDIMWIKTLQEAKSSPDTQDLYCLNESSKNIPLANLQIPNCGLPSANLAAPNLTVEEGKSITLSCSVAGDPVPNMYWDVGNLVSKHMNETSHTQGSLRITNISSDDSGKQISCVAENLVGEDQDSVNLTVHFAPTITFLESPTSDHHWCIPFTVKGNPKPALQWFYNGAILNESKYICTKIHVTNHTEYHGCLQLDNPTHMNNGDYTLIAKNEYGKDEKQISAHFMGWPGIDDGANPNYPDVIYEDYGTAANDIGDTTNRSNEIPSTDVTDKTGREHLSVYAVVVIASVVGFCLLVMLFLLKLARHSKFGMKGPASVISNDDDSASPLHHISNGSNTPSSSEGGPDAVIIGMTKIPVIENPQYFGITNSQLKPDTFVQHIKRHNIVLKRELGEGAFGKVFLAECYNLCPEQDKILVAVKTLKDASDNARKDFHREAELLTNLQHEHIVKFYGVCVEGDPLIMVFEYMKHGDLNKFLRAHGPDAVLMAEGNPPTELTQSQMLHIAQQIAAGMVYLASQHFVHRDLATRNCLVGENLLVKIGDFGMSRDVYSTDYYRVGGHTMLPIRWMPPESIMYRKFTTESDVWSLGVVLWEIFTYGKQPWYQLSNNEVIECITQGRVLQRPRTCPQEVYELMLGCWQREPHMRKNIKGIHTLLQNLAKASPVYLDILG
Chain of DYRK1B (human) (Q9Y463 whole entry, looked up): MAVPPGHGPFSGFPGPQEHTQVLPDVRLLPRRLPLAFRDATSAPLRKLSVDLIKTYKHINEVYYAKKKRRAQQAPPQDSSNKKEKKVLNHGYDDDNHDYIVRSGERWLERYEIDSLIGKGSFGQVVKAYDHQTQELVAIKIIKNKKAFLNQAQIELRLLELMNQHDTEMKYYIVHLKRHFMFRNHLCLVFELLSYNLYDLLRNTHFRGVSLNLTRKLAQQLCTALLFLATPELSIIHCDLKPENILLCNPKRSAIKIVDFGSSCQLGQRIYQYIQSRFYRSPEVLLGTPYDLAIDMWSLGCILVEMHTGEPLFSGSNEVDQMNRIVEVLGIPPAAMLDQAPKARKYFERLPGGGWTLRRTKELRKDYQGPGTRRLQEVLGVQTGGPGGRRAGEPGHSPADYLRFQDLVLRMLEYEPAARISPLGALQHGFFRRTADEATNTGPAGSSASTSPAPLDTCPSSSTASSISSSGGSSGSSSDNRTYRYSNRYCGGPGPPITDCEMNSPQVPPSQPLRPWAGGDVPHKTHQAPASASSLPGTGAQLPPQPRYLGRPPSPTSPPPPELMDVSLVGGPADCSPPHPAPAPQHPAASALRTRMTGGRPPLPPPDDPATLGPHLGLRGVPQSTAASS

Compound OCCCNc1cc(-c2ccnc(Nc3cccc(Cl)c3)n2)ccn1 has a kinase still bound, per cent of control (AAK1 (human)) of 21%, a kinase still bound, per cent of control (ACVRL1 (human)) of 100% and a kinase still bound, per cent of control (AURKC (human)) of 100%. It also gave a kinase still bound, per cent of control (CAMK2A (human)) of 100%, a kinase still bound, per cent of control (CAMK2D (human)) of 100% and a kinase still bound, per cent of control (CDC42BPA (human)) of 100%. For the same compound, the kinase still bound, per cent of control (CDK18 (human)) was 100%, the kinase still bound, per cent of control (CDK8 (human)) was 100% and the kinase still bound, per cent of control (DDR2 (human)) was 100%. For the same compound, the kinase still bound, per cent of control (DYRK1B (human)) was 4%, the kinase still bound, per cent of control (EPHB1 (human)) was 100% and the kinase still bound, per cent of control [1] was 100%. For the same compound, the kinase still bound, per cent of control (FRK (human)) was 100%, the kinase still bound, per cent of control (FYN (human)) was 100% and the kinase still bound, per cent of control (GSK3B (human)) was 100%. The kinase still bound, per cent of control (IKBKB (human)) was 100%, the kinase still bound, per cent of control (MAP2K4 (human)) was 100% and the kinase still bound, per cent of control (MAP4K1 (human)) was 100%. The kinase still bound, per cent of control (MAP4K3 (human)) was 100%, the kinase still bound, per cent of control (MAPK13 (human)) was 100% and the kinase still bound, per cent of control (MAPK14 (human)) was 100%. The kinase still bound, per cent of control (MAPK3 (human)) was 100%, the kinase still bound, per cent of control (MARK1 (human)) was 100% and the kinase still bound, per cent of control (MARK4 (human)) was 100%. It also gave a kinase still bound, per cent of control (MKNK1 (human)) of 100%, a kinase still bound, per cent of control (NEK2 (human)) of 100% and a kinase still bound, per cent of control (NTRK2 (human)) of 100%. For the same compound, the kinase still bound, per cent of control (PAK4 (human)) was 100%, the kinase still bound, per cent of control (PIM2 (human)) was 100% and the kinase still bound, per cent of control (RAF1 (human)) was 100%. The kinase still bound, per cent of control (RPS6KA4 KD2 (human)) was 100%, the kinase still bound, per cent of control (RPS6KA5 KD1 (human)) was 100% and the kinase still bound, per cent of control (SIK1 (human)) was 100%. It also gave a kinase still bound, per cent of control (STK11 (human)) of 100%, a kinase still bound, per cent of control (STK32C (human)) of 100% and a kinase still bound, per cent of control (STK36 (human)) of 100%. The kinase still bound, per cent of control (SYK (human)) was 100%, the kinase still bound, per cent of control (TLK1 (human)) was 100% and the kinase still bound, per cent of control (TTK (human)) was 100%. It also gave a kinase still bound, per cent of control (WEE1 (human)) of 100%.
